From patent US20050148495A1, “Methods and materials including for treating acne” (priority 2003, published 2005)
≈ marks a conversion by molar mass, not a printed value. Read-outs that look alike come from different tables or passages of the source. Non-standard residues stand in square brackets, D forms with d. Residues, ends and D or L forms follow the SMILES beside them. d1Nal = N[C@H](Cc1cccc2ccccc12)C(=O)O

Columns and labels:
P. acnes (ATCC 6919) = test: Post-antibiotic effect (PAE) study; type: cell-based, Propionibacterium acnes
Procedure: Post-antibiotic effect (PAE) studies with XMP.629 were conducted according to the procedure described by Craig, W. and S. Gudmundsson, “Postantibiotic Effect,” p. 296, In: Lorian, V. (ed.) Antibiotics in Laboratory Medicine, 4th ed. The post antibiotic effect measures the duration that an antibiotic affects target organisms after contact with the bacteria. In this study, an initial concentration of 5×10^6 CFU/mL P. acnes (ATCC 6919) and 1 μg/mL were incubated for 15, 30, or 60 minutes and then diluted 100-fold in BHI. The treated organisms and matched untreated controls were incubated for […]. Samples were taken and counted at hourly intervals. Recovery was determined by plate counts over time.
The postantibiotic value is the difference in time between the controls and treated cultures to increase 1 log10. Because of the long generation time (slow growth) of the organism, the recovery time was unusually long, >12 hours. This may have influenced the results as typical assays are completed within 5-6 hours.

[1] = Stability in aqueous solution as indicated by biological activity; type: physicochemical; settings: 4° C.
Procedure: In additional studies, a variety of formulations of XMP.629 were tested for stability under various temperatures, such as 25° C., 40° C., and 50° C., and at various time points, such as 0.5, 1, and 2 months.

[2] = test system: Salmonella typhimurium TA98, TA100, TA1535, TA1537 and Escherichia coli WP2uvrA; test: Ames test: Salmonella-Escherichia coli/mammalian-microsome reverse mutation assay; type: cell-based; settings: with and without S9
Procedure: XMP.629 was evaluated in an initial mutagenicity assay. In this Salmonella-Escherchia coli/mammalian-microsome reverse mutation assay, XMP.629 was evaluated for the ability to induce reverse mutations at the histidine locus in four tester strains of Salmonella-typhimurium (TA98, TA100, TA1535 and TA1537) and at the tryptophan locus in Escherichia coli tester strain, WP2uvrA, in the presence or absence of an exogenous metabolic activation system ([…]). The experimental materials, methods and procedures were based on those described by Ames et al., 1975 (Mutat. Res. 31; 347-364) and Green and Muriel, 1976 (Mutat. Res. 38: 3-32). The assay design was based on the OECD Guideline 471, updated and adopted Jul. 21, 1997. Based on the results of an initial dose rangefinding study, XMP.629 was evaluated using (a) four standard Salmonella tester strains with the rat hepatic S9 (microsomal) fraction at doses of 1.00, 3.33, 10.0, 33.3, 66.7 and 100 μg/plate, and without S9 at doses of 1.00, 3.33, 10.0, 25.0, 33.3 and 66.7 μg/plate; and (b) tester strain WP2uvrA with S9 at doses of 3.33, 10.0, 33.3, 100, 250 and 333 μg/plate and without S9 at doses of 1.00, 3.33, 10.0, 33.3, 66.7 and 100 μg/plate. XMP.629 was re-evaluated in an independent confirmatory experiment under similar conditions at lower doses.
In addition, the test article was freely soluble at all doses evaluated with and without S9. […]

P. acnes = settings: for MBC Range: in µg/mL
Procedure: An in vitro assessment of antibiotic activity in XMP.629 and various known antibiotics against a representative panel of bacterial strains associated with acne was conducted. A broth dilution methodology was employed using guidelines established by National Committee for Clinical Laboratory Standards (NCCLS) for anaerobic organisms to establish an antibacterial profile for XMP.629. Assays to determine the minimal bactericidal concentrations (MBC) and minimal inhibitory concentration (MIC) were conducted for XMP.629 and other known antibiotics.
Inoculum from a representative panel of bacterial strains associated with acne, such as P. acnes, P. avidum, P. granulosum, and Staphylococcus epidermis was prepared by suspending approximately 5-10 isolated bacterial colonies in pre-reduced MicroScan® Inoculum Water (Dade Behring, Deerfield, Ill.), and growing the bacterial suspension to log phase (approximately 48 hrs). An inoculum of between 1-5×10^6/mL was achieved by adding 100 μL of the suspension to 25 mL Brain Heart Infusion Broth (BHI) (Anaerobe Systems, Morgan Hill, Calif.).
A stock solution of XMP.629 dissolved in water at a concentration of 4.0 mg/mL was prepared. Dilute solutions of XMP.629 at concentrations ranging from about 1.25 to about 160 μg/mL were made in either water or formulation buffer (130 mM sodium chloride, 0.2% P103 (poloxamer 333), and 0.10% EDTA, pH 7.3).
Control tubes containing only water or formulation buffer were prepared for each isolate. Initial growth controls were determined by removing 10 μL from the water control tube and diluting it by 100 fold. From this dilution, 10 μL was used for inoculation and for spreading over the surface onto Laked Blood Agar (LBA) (Anaerobe Systems, Morgan Hill, Calif.) plates. The tubes and plates were incubated in an anaerobic atmosphere at 37° C. for 48 h.

Streptococcus sobrinus = Streptococcus sobrinus 27607
[3] = ATCC 6919, Formulation Buffer Solvent, Study 1
[4] = ATCC 6919, Formulation Buffer Solvent, Study 2
[5] = ATCC 6919, Water Solvent, Study 1
[6] = ATCC 6919, Water Solvent, Study 2
[7] = ATCC 6919, XMP.629 composition of Example 5 (Table 12)
[8] = ATCC 11827, Formulation Buffer Solvent, Study 1
[9] = ATCC 11827, Formulation Buffer Solvent, Study 2
[10] = ATCC 11827, Water Solvent, Study 1
[11] = ATCC 11827, Water Solvent, Study 2
[12] = ATCC 11828, composition of Example 5
[13] = Clindamycin Resistant C678, composition of Example 5
[14] = Clindamycin Resistant C767, composition of Example 5
[15] = Clindamycin Resistant C768, composition of Example 5
[16] = Clindamycin Resistant C769, composition of Example 5
[17] = Clindamycin Resistant C770, composition of Example 5
[18] = P. acnes strains of Table 7, composition of Example 5
[19] = P. acnes, Clindamycin resistant, 16 strains
[20] = P. acnes, Clindamycin sensitive, 20 strains
[21] = Propionibacterium acnes, 36 strains/clinical isolates, formulation buffer
[22] = RMA 9833, Formulation Buffer Solvent, Study 1
[23] = RMA 9833, Formulation Buffer Solvent, Study 2
[24] = RMA 9833, Water Solvent, Study 1
[25] = RMA 9833, Water Solvent, Study 2
[26] = RMA 9833, composition of Example 5
[27] = RMA 12689, Formulation Buffer Solvent, Study 1
[28] = RMA 12689, Formulation Buffer Solvent, Study 2
[29] = RMA 12689, Water Solvent, Study 1
[30] = RMA 12689, Water Solvent, Study 2
[31] = RMA 12689, composition of Example 5
[32] = RMA 12732, Formulation Buffer Solvent, Study 1
[33] = RMA 12732, Formulation Buffer Solvent, Study 2
[34] = RMA 12732, Water Solvent, Study 1
[35] = RMA 12732, Water Solvent, Study 2
[36] = RMA 12908, Formulation Buffer Solvent, Study 1
[37] = RMA 12908, Formulation Buffer Solvent, Study 2
[38] = RMA 12908, Water Solvent, Study 1
[39] = RMA 12908, Water Solvent, Study 2
[40] = RMA 12908, composition of Example 5
[41] = RMA 13399, Formulation Buffer Solvent, Study 1
[42] = RMA 13399, Formulation Buffer Solvent, Study 2
[43] = RMA 13399, Water Solvent, Study 1
[44] = RMA 13399, Water Solvent, Study 2
[45] = UD 738, composition of Example 5
[46] = XMP.629 composition of Example 5 (Table 12), P. acnes strains of Table 7

SMILES: CC(C)C[C@@H](NC(=O)[C@H](N)CCCCN)C(=O)N[C@H](Cc1ccccc1)C(=O)N[C@H](CCCNC(=N)N)C(=O)N[C@H](Cc1cccc2ccccc12)C(=O)N[C@H](CCC(N)=O)C(=O)N[C@H](C)C(=O)N[C@H](CCCCN)C(=O)N[C@H](Cc1cccc2ccccc12)C(N)=O [XMP.629, NH2-lys-leu-phe-arg-(3-(1-naphthyl)-ala)-gln-ala-lys-(3-(1-naphthyl)-ala)-CONH2] (H-[dK][dL][dF][dR][d1Nal][dQ][dA][dK][d1Nal]-NH2)
- PAE value (P. acnes (ATCC 6919); 1 μg/mL, contact 30 or 60 minutes, accurate value could not be assigned): ≥ 12 h
- recovery of affected cells (P. acnes (ATCC 6919); exposure to 0.5 to 2.0 MBCs for 15 minutes): did not recover, even after 24 hours of incubation
- duration of continuing inhibitory, but not lethal, effect after contact (P. acnes (ATCC 6919); residence time greater than 15 minutes): more than 5 hours
- stable in aqueous solution as indicated by biological activity [1]: greater than 6 months
- reverse mutation assay result [2]: negative
- MBC (P. acnes; [3]): 1 µg/mL (≈ 0.779 µM)
- MIC (P. acnes; [3]): 0.5 µg/mL (≈ 0.39 µM)
- MBC (P. acnes; [4]): 0.50 µg/mL (≈ 0.39 µM)
- MIC (P. acnes; [4]): 1 µg/mL (≈ 0.779 µM)
- MBC (P. acnes; [5]): 4 µg/mL (≈ 3.12 µM)
- MIC (P. acnes; [5]): 2 µg/mL (≈ 1.56 µM)
- MBC (P. acnes; [6]): 2 µg/mL (≈ 1.56 µM)
- MIC (P. acnes; [6]): 2 µg/mL (≈ 1.56 µM)
- MBC (P. acnes; [7]): 2 µg/mL (≈ 1.56 µM)
- MIC (P. acnes; [7]): 1 µg/mL (≈ 0.779 µM)
- MBC (P. acnes; [8]): 1 µg/mL (≈ 0.779 µM)
- MIC (P. acnes; [8]): 0.5 µg/mL (≈ 0.39 µM)
- MBC (P. acnes; [9]): 1 µg/mL (≈ 0.779 µM)
- MIC (P. acnes; [9]): 1 µg/mL (≈ 0.779 µM)
- MBC (P. acnes; [10]): 2 µg/mL (≈ 1.56 µM)
- MIC (P. acnes; [10]): 2 µg/mL (≈ 1.56 µM)
- MBC (P. acnes; [11]): 2 µg/mL (≈ 1.56 µM)
- MIC (P. acnes; [11]): 2 µg/mL (≈ 1.56 µM)
- MBC (P. acnes; [12]): 2 µg/mL (≈ 1.56 µM)
- MIC (P. acnes; [12]): 1 µg/mL (≈ 0.779 µM)
- MBC (P. acnes; [13]): 4 µg/mL (≈ 3.12 µM)
- MIC (P. acnes; [13]): 1 µg/mL (≈ 0.779 µM)
- MBC (P. acnes; [14]): 2 µg/mL (≈ 1.56 µM)
- MIC (P. acnes; [14]): 1 µg/mL (≈ 0.779 µM)
- MBC (P. acnes; [15]): 4 µg/mL (≈ 3.12 µM)
- MIC (P. acnes; [15]): 2 µg/mL (≈ 1.56 µM)
- MBC (P. acnes; [16]): 2 µg/mL (≈ 1.56 µM)
- MIC (P. acnes; [16]): 1 µg/mL (≈ 0.779 µM)
- MBC (P. acnes; [17]): 2 µg/mL (≈ 1.56 µM)
- MIC (P. acnes; [17]): 0.5 µg/mL (≈ 0.39 µM)
- MIC90, XMP.629 data reported as MBC values (P. acnes; P. acnes): 1 µg/mL (≈ 0.779 µM)
- MBC Geo. Mean (P. acnes; [18]): 2.3 µg/mL (≈ 1.79 µM)
- MIC Geo. Mean (P. acnes; [18]): 0.95 µg/mL (≈ 0.74 µM)
- MBC50 (P. acnes; [19]): 1 µg/mL (≈ 0.779 µM)
- MBC90 (P. acnes; [19]): 2 µg/mL (≈ 1.56 µM)
- MBC Range (P. acnes; [19]): 1-2
- MBC50 (P. acnes; [20]): 1 µg/mL (≈ 0.779 µM)
- MBC90 (P. acnes; [20]): 2 µg/mL (≈ 1.56 µM)
- MBC Range (P. acnes; [20]): 0.25-2
- MBC50 (P. acnes; [21]): 1 µg/mL (≈ 0.779 µM)
- MBC90 (P. acnes; [21]): 2 µg/mL (≈ 1.56 µM)
- MBC Range (P. acnes; Propionibacterium acnes, 36 strains/clinical isolates): 0.25-2
- MBC (P. acnes; [22]): 1 µg/mL (≈ 0.779 µM)
- MIC (P. acnes; [22]): 0.5 µg/mL (≈ 0.39 µM)
- MBC (P. acnes; [23]): 2 µg/mL (≈ 1.56 µM)
- MIC (P. acnes; [23]): 1 µg/mL (≈ 0.779 µM)
- MBC (P. acnes; [24]): 2 µg/mL (≈ 1.56 µM)
- MIC (P. acnes; [24]): 1 µg/mL (≈ 0.779 µM)
- MBC (P. acnes; [25]): 2 µg/mL (≈ 1.56 µM)
- MIC (P. acnes; [25]): 2 µg/mL (≈ 1.56 µM)
- MBC (P. acnes; [26]): 1 µg/mL (≈ 0.779 µM)
- MIC (P. acnes; [26]): 0.5 µg/mL (≈ 0.39 µM)
- MBC (P. acnes; [27]): 2 µg/mL (≈ 1.56 µM)
- MIC (P. acnes; [27]): 1 µg/mL (≈ 0.779 µM)
- MBC (P. acnes; [28]): 2 µg/mL (≈ 1.56 µM)
- MIC (P. acnes; [28]): 1 µg/mL (≈ 0.779 µM)
- MBC (P. acnes; [29]): 4 µg/mL (≈ 3.12 µM)
- MIC (P. acnes; [29]): 2 µg/mL (≈ 1.56 µM)
- MBC (P. acnes; [30]): 2 µg/mL (≈ 1.56 µM)
- MIC (P. acnes; [30]): 2 µg/mL (≈ 1.56 µM)
- MBC (P. acnes; [31]): 2 µg/mL (≈ 1.56 µM)
- MIC (P. acnes; [31]): 1 µg/mL (≈ 0.779 µM)
- MBC (P. acnes; [32]): 2 µg/mL (≈ 1.56 µM)
- MIC (P. acnes; [32]): 2 µg/mL (≈ 1.56 µM)
- MBC (P. acnes; [33]): 2 µg/mL (≈ 1.56 µM)
- MIC (P. acnes; [33]): 2 µg/mL (≈ 1.56 µM)
- MBC (P. acnes; [34]): 4 µg/mL (≈ 3.12 µM)
- MIC (P. acnes; [34]): 4 µg/mL (≈ 3.12 µM)
- MBC (P. acnes; [35]): 2 µg/mL (≈ 1.56 µM)
- MIC (P. acnes; [35]): 4 µg/mL (≈ 3.12 µM)
- MBC (P. acnes; [36]): 2 µg/mL (≈ 1.56 µM)
- MIC (P. acnes; [36]): 2 µg/mL (≈ 1.56 µM)
- MBC (P. acnes; [37]): 2 µg/mL (≈ 1.56 µM)
- MIC (P. acnes; [37]): 2 µg/mL (≈ 1.56 µM)
- MBC (P. acnes; [38]): 4 µg/mL (≈ 3.12 µM)
- MIC (P. acnes; [38]): 4 µg/mL (≈ 3.12 µM)
- MBC (P. acnes; [39]): 4 µg/mL (≈ 3.12 µM)
- MIC (P. acnes; [39]): 2 µg/mL (≈ 1.56 µM)
- MBC (P. acnes; [40]): 2 µg/mL (≈ 1.56 µM)
- MIC (P. acnes; [40]): 1 µg/mL (≈ 0.779 µM)
- MBC (P. acnes; [41]): 1 µg/mL (≈ 0.779 µM)
- MIC (P. acnes; [41]): 0.5 µg/mL (≈ 0.39 µM)
- MBC (P. acnes; [42]): 2 µg/mL (≈ 1.56 µM)
- MIC (P. acnes; [42]): 2 µg/mL (≈ 1.56 µM)
- MBC (P. acnes; [43]): 4 µg/mL (≈ 3.12 µM)
- MIC (P. acnes; [43]): 2 µg/mL (≈ 1.56 µM)
- MBC (P. acnes; [44]): 4 µg/mL (≈ 3.12 µM)
- MIC (P. acnes; [44]): 4 µg/mL (≈ 3.12 µM)
- MBC (P. acnes; [45]): 2 µg/mL (≈ 1.56 µM)
- MIC (P. acnes; [45]): 0.5 µg/mL (≈ 0.39 µM)
- MBC50 (P. acnes; [46]): 2 µg/mL (≈ 1.56 µM)
- MBC90 (P. acnes; [46]): 2 µg/mL (≈ 1.56 µM)
- Minimum Inhibitory Concentrations (Streptococcus sobrinus): 2.00 µg/mL
